# ChEMBL document CHEMBL4610028, “Variegatic acid from the edible mushroom Tylopilus ballouii inhibits TNF-α production and PKCβ1 activity in leukemia cells” (Bioorg Med Chem Lett, 2020)
# Columns and labels:
# [1] = target: T1, Protein kinase C beta type (Rattus norvegicus, UniProt P68403); experiment: Inhibition of PKCbeta in rat RBL2H3 cells assessed as inhibition of ionomycin-stimulated TNFalpha release preincubated for 15 mins followed by ionomycin stimulation and measured after 3 hrs by ELISA; format: cell-based, RBL-2H3
# T1 sequence (P68403 whole entry): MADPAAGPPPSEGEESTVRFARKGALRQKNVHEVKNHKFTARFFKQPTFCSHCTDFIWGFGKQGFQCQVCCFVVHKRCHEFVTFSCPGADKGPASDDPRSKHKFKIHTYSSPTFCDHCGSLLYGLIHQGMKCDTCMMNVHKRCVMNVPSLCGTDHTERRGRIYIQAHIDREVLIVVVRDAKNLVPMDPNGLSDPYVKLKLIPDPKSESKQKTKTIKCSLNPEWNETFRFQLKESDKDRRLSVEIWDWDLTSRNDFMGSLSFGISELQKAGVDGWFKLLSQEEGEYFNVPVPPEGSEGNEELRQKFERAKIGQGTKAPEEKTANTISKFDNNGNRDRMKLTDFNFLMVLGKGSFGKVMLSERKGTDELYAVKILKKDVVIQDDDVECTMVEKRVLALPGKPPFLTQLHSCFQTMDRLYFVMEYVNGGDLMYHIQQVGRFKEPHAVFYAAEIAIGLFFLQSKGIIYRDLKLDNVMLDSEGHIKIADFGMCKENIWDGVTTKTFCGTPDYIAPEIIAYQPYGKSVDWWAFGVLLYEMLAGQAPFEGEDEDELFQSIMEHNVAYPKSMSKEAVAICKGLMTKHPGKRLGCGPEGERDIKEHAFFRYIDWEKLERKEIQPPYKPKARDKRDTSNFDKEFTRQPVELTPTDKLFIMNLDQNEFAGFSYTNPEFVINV
# [2] = target: T1, Protein kinase C beta type; experiment: Inhibition of PKCbeta in rat RBL2H3 cells assessed as inhibition of ionomycin-stimulated beta-hexosaminidase release preincubated for 15 mins followed by ionomycin stimulation and measured after 3 hrs by 4-nitropheny1-2-acetamide-2-deoxy-beta-glucopyranoside substrate based colorimetric method; format: cell-based, RBL-2H3
# [3] = target: T1, Protein kinase C beta type; experiment: Inhibition of PKCbeta in rat RBL2H3 cells assessed as inhibition of anti-DNP IgE-stimulated TNFalpha release preincubated for 15 mins followed by mouse anti-DNP IgE stimulation and measured after 3 hrs by ELISA; format: cell-based, RBL-2H3
# [4] = target: Protein kinase C beta type (Homo sapiens, UniProt P05771); experiment: Inhibition of recombinant full-length N-temrinal GST-tagged human PKC beta1 expressed in baculovirus infected Sf9 cells using TMB as substrate incubated for 4.5 hrs by colorimetric analysis
smiles,measurement,setting,value
O=C1O/C(=C(/C(=O)O)c2ccc(O)c(O)c2)C(O)=C1c1ccc(O)c(O)c1,IC50,[1],20.1 µM
same,IC50,[2],22.2 µM
same,IC50,[3],16.8 µM
same,IC50,[4],36.2 µM
same,inhibition,[4],Dose-dependent effect
